Test results from patent US20080293583A1, “Methods for diagnosing mood disorders” (Wyeth, priority 2003, published 2008).

System: progenitor stem cells in the subgranular zone (SGZ) of the hippocampus
Assay: BrdU immunostaining, long-term survivability of progenitor stem cells in SGZ
Assay type: in vivo, rat
Conditions: for number of surviving cells in the SGZ relative to saline controls / basal levels: 4 weeks after the last BrdU injection
Experimental: Antidepressant treatment and BrdU dosing. Dosing of adult male Sprague Dawley rats was performed as described above for 14 days (n=10 rats per group). To evaluate the effect of chronic antidepressant treatment on proliferation of progenitor stem cells, 24 hours after the last antidepressant injection, rats were administered BrdU (Sigma, St. Louis, Mo.) (50 mg/kg rig ip injection twice a day) for 4 days prior to euthanesia. To evaluate the effect of chronic antidepressant treatment on survival of progenitor stem cells, a sub-group of rats were allowed to live for 4 weeks after BrdU injection. All rats were perfused through the ascending aorta with 50 ml of 0.9% saline, followed by 400 ml of freshly prepared 4% paraformaldehyde in PBS (pH 7.5). After 30-60 minutes post-perfusion, rat brains were removed and postfixed in 4% paraformaldehyde in PBS overnight, followed by immersion in 30% sucrose/PBS solution for 48-72 hours at 4° C. Brains were rapidly frozen on dry-ice and stored at −80° C. Brain sectioning and staining for BrdU immunoreactivity were performed as previously described by Malberg et al. (2000). Briefly, serial coronal sections of each brain were cut (35 μm thickness) through the entire hippocampus (stereotaxic plates 26-40 according to Paxinos, Watson and Emson, 1980) using a freezing microtome. Every sixth section throughout the hippocampus was processed for BrdU staining. Free-floating sections were maintained in 100 mM PBS (about 100 sections per brain). DNA denaturation of the sections was performed as follows: sections were treated with 50% formamide/50% 2×SSC (0.3 M NaCl/0.03 M sodium citrate) for 2 hours at 65° C., rinsed in PBS (2 times for 5 minutes at room temperature), incubated with 2 N HCl for 30 minutes, followed by 0.1 M boric acid buffer (pH 8.5) for 10 minutes and a final rinse in PBS. For BrdU immunostaining, sections were incubated with 3% H2O2 in PBS for 30 minutes, rinsed in PBS and blocked with 3% normal horse serum in 0.01% TritonX-100 for 30 minutes. Anti-mouse BrdU (1:250 Sigma) was applied to the free-floating sections and incubated overnight at 4° C. The sections were rinsed in PBS, incubated with biotinylated horse, anti-mouse IgG (Vector Lab) for 30 minutes and washed in PBS. ABC reagent complex (Vectastain Elite kit from Vector) was added (as per manufacturer's instructions) for 30 minutes, followed by rinsing in PBS and color development with DAB solution for 4 minutes. Sections were mounted on glass slides and coverslipped. All BrdU labeled cells in the subgranular zone (SGZ) were counted in each section by an experimenter blinded to the study code. All counts were performed at 200× magnification using a light microscope (Zeiss Axiovert 135). The total number of BrdU labeled cells per section were determined and multiplied by 12 to obtain the total number of cells per dentate gyrus. Comparative analyses between treatments were performed using a Tukey HSD post hoc analysis for multiple comparisons.
In vivo studies were performed to measure the effects of antidepressant drug treatment on adult hippocampal neurogenesis by immunological methods. The method used to detect cell proliferation involved 5-bromo-2-deoxyuridine (BrdU) dosing twice a day for 4 days after a 2 week systemic administration of either saline, fluoxetine or venlafaxine. The presence of BrdU within the vicinity of dividing progenitor stem cells in the hippocampal region allowed for its incorporation and the detection of DNA synthesis (the more cell proliferation the more DNA synthesis). The number of BrdU-positive cells was visualized by immunoperoxidase staining. The BrdU immunostaining and quantitative results indicated a significant increase (˜33%) in the proliferation rate of progenitor stem cells in the subgranular zone (SGZ) of the hippocampus for both venlafaxine (P<0.01; n=5) and fluoxetine (P<0.01; n=5) versus saline controls. […]

Which “number of surviving cells in the SGZ relative to saline controls / basal levels” value (FIG. 1B) does the source give for `CNCCC(Oc1ccc(C(F)(F)F)cc1)c1ccccc1` (stereo not drawn) [Fluoxetine, fluoxetine] here?
The value was “significant preservation of proliferative and survivability effects over basal levels”.

And the “number of surviving cells in the SGZ relative to saline controls / basal levels” value (FIG. 1B, listed as fluoxetine)?
Its value is “increased the number of surviving cells in the SGZ”.

For `COc1ccc(C(CN(C)C)C2(O)CCCCC2)cc1` (stereo not drawn) [Venlafaxine, venlafaxine], which “sustainability in the rate of proliferation and survivability of progenitor stem cells over basal levels” value (4 weeks after the last antidepressant dose) is on record?
Its value is 80%.

And the “number of surviving cells in the SGZ relative to saline controls / basal levels” value (FIG. 1B)?
Its value is “increased the number of surviving cells in the SGZ”.

And the “overall number of surviving cells, venlafaxine versus fluoxetine” value (FIG. 1B, P<0.01)?
Its value is “significant increase in the overall number of surviving cells”.

And the “more cells compared with fluoxetine” value (long-term survivability, venlafaxine versus fluoxetine)?
Its value is ~40%.
